Source: PubChem BioAssay (NCI)
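Each compound was tested at five concentrations against cells in 96-well plates for 48 hours. At the GI50, growth is halved. TGI is the concentration that stops growth completely.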

Legend:
Assay in all cases: NCI anticancer screen, dose series, 48 h
SF-539 CNS = tested on: SF-539 CNS
MALME-3M melanoma = tested on: MALME-3M melanoma
CAKI-1 renal = tested on: CAKI-1 renal
ACHN renal = tested on: ACHN renal
SK-MEL-2 melanoma = tested on: SK-MEL-2 melanoma
K-562 leukemia = tested on: K-562 leukemia
SNB-19 CNS = tested on: SNB-19 CNS
MCF7 breast = tested on: MCF7 breast
HCT-15 colon = tested on: HCT-15 colon
DU-145 prostate = tested on: DU-145 prostate

Compound	TGI (SF-539 CNS) [µM]	TGI (MALME-3M melanoma) [µM]	TGI (CAKI-1 renal) [µM]	TGI (ACHN renal) [µM]	TGI (SK-MEL-2 melanoma) [µM]	TGI (K-562 leukemia) [µM]	TGI (SNB-19 CNS) [µM]	TGI (MCF7 breast) [µM]	TGI (HCT-15 colon) [µM]	TGI (DU-145 prostate) [µM]	GI50 (MCF7 breast) [µM]	GI50 (HCT-15 colon) [µM]	GI50 (DU-145 prostate) [µM]	GI50 (SF-539 CNS) [µM]	GI50 (MALME-3M melanoma) [µM]	GI50 (CAKI-1 renal) [µM]	GI50 (ACHN renal) [µM]	GI50 (SK-MEL-2 melanoma) [µM]	GI50 (SNB-19 CNS) [µM]	GI50 (K-562 leukemia) [µM]
CC1=C2CCCC2=C/C(=N/Nc2ccc([N+](=O)[O-])cc2[N+](=O)[O-])CC1	> 100	> 100	> 100	> 100	> 100	> 100	> 100													
CCSc1[nH]c(Nc2nc(-c3ccccc3)n(-c3ccccc3)n2)c(C(N)=O)c1C(N)=O		> 10	> 10			> 10		> 10	> 10	> 10										
CCN1CCN=c2c3cc(OC)ccc3n3cnc4ccc1c2c43	0.413	1.1		0.792	0.808	0.4	1.95	0.993	0.432	2.73										
O=c1[nH]cc(COCCO)c(=O)[nH]1	> 100	> 100	> 100	> 100	> 100	> 100	> 100		> 100											
C1CSCCSCCS1	> 100					> 100	> 100	> 100	> 100	> 100										
O=C1c2ccccc2C2(O)c3cc4ccccc4cc3OC12O (stereo not drawn)	> 100	> 100	> 100	> 100	> 100	> 100	> 100		> 100											
O=C(NCCCCN=c1cccccc1NCCCCNC(=O)OCc1ccccc1)OCc1ccccc1	31.8	40.6	37.9	59.5	36.9	33.4	79.8		23.2											
O=C1CC(C[C@H](O)C2CCCCC2O)CC(=O)N1Cc1ccccc1 (stereo partly drawn)	> 100	> 100	> 100	> 100	> 100	> 100	> 100													
C=CC(=O)N1CCC(C2CCNc3c(C(N)=O)c(-c4ccc(Oc5ccccc5)cc4)nn32)CC1 (stereo not drawn)	43	34.6	71	23.6	40.4		> 100	59.4	46.3	> 100	12.3	14.9	11.6	13.5	14	4.51	2.32	20.3	14.4	
N#Cc1c(-c2ccc(F)cc2)c(-c2ccc(F)cc2)nn(CCO)c1=O	0.553	> 100	> 100	> 81.1		> 100	> 100	> 100	8.6	4.42										
CCOc1ccc2c(c1)[n+]([O-])c(-c1ccccc1Cl)c(N)[n+]2[O-]	> 100	> 100	> 100	> 100	> 100	> 100	> 100													
O=C(O)CSc1n[nH]c(-c2ccccc2)n1	> 100	> 100	> 100	> 100	> 100	> 100	> 100		> 100											
CCOc1ccc(N2C(=O)/C(=C/c3ccc(N(CCC#N)CCC#N)cc3)N=C2c2cc([N+](=O)[O-])ccc2Cl)cc1	> 100		87.1	> 100	> 100	81.2	> 100		> 100											
COc1ccc(/C(=N\NC(=O)C(N)=O)C(c2ccc(OC)cc2)C2(O)C(=O)Nc3c(Cl)cccc32)cc1 (stereo not drawn)		> 100		> 100	> 100		> 100													
CCOC(=O)NC(=O)c1cn(CCOC(=O)NCCCCCCNC(=O)OCCn2cc(C(=O)NC(=O)OCC)c(=O)[nH]c2=O)c(=O)[nH]c1=O		> 100	> 100	> 100	> 100	> 100	> 100		> 100											
COC12C=C/C(=C(/C(=O)OCc3ccncc3)C(=O)CCCCCCCCC3(OC)C=C/C(=C(/C(=O)OCc4ccncc4)C(=O)CCCCCCCC1)O3)O2	2.03		2.85	1.14	3.05		7.17		1.74	2.29		0.548	0.709	0.877		1.12	0.217	1.08	1.28	
CC1(C)OCCn2c1nc1c(N3CCOCC3)nc(-c3cnc(N)nc3)nc12	2.55	0.6		> 100	3.79	> 100	> 30.2	> 100	> 100	> 100	0.077	0.241	0.354	0.316	0.0974		0.274	0.372	1.01	2.27
CCOC(=O)C(C)(C)Oc1ccc2c(C)c(-c3ccc(Cl)cc3)c(=O)oc2c1	> 100	> 100		> 100	> 100	> 100	> 100		> 100											
CCOc1ccc2nc(S/C(=C/C=C(C#N)C#N)c3ccc(C)cc3)sc2c1	57.2	> 100	54.6	36.9		55	> 100	79.6	28.8	> 100	17.8	12.2	40.5	26	33	17.1	18.4		> 100	5.28
CCCNC(=S)/N=C/c1c(O)c2ccccc2[nH]c1=O	> 100		> 100	> 100	> 100	> 100	> 100	> 100	> 100	> 100										
CCC1C2C=CC(CC2)N1S(=O)(=O)c1ccc(C)cc1 (stereo not drawn)	76.6	73.4	> 100	> 100	28.3	> 100	> 100		73.5											
O=C(Nc1cc(Cl)ccc1Cl)c1cc2cccc(Cl)c2oc1=O	> 100	> 100		> 100		> 100			> 100											
